Data as given in US20240018119A1, “CARBOXAMIDE DERIVATIVE AND PHARMACEUTICAL COMPOSITION COMPRISING SAME AS ACTIVE INGREDIENT FOR PREVENTING OR TREATING MENTAL ILLNESS” (DAEGU-GYEONGBUK MEDICAL INNOVATION FOUNDATION, priority 2020, published 2024).

Columns and labels:
Type in all cases: cell-based
serotonin transporter = biological target: T1, serotonin transporter (Homo sapiens, UniProt P31645); assay: Serotonin reuptake inhibition in transporter-transfected HEK-293 cells ([3H]-5-HT); conditions: for Triple reuptake inhibition (Ratio %) SERT: compound 1 μM, [3H]-5-HT, relative to control without compound (100%), lower = more inhibition; for IC50: concentration at which Ratio % is 50%, 6 concentrations 1 nM to 1 μM, read-out: Triple reuptake inhibition (IC50, μM) SERT
T1 construct: expressed in transfected cells; host or cells: HEK-293
Description: (§1) To evaluate the reuptake inhibitory effect on dopamine, the dopamine transporter cDNA was transfected using the HEK-293 cell line, and then sub-seeded in a 24 well plate the next day. After removing the medium, each compound of the Examples or Comparative Examples diluted to 1 μM in uptake buffer was added to a concentration of 200 μl/well and cultured at 37° C. for 15 minutes. 100 μl of uptake buffer containing 20-30 nM [3H]-DA was added and cultured at 37° C. for 5 minutes. The reaction solution was quickly removed and washed three times with 1 ml ice-cold uptake buffer. After dissolving the resultant in 1% SDS (0.5 ml), the degree of binding of radioisotope-labeled dopamine to the transporter was measured.
(§2) For norepinephrine (NE) and serotonin (5-HT), the degree of binding of radioisotope-labeled norepinephrine or serotonin to the transporter was measured in the same manner as above, except that cells transfected with NE or 5-HT transporter cDNA were used and [3H]-NE or [3H]-5-HT was used as a substrate.
(§3) In addition, when evaluating the reuptake inhibitory effect on dopamine, norepinephrine, and serotonin, the same method was performed without treating each compound of the Examples or Comparative Examples as a control, the degree of binding of radioisotope-labeled dopamine, norepinephrine, and serotonin to the transporter was measured, and by using this as a standard (100%), the triple reuptake inhibitory effect was evaluated as a relative ratio (Ratio %). That is, in the control group, the binding of dopamine, norepinephrine, and serotonin to transporters is not inhibited, but when each compound of the Examples is treated and thus the binding is inhibited, the Patio % value decreases.
In addition, in the case of the compound of Comparative Example 1, IC50 was obtained by the same method as the Example Compounds.

[1] = biological target: T2, norepinephrine transporter (Homo sapiens, UniProt P23975); assay: Norepinephrine reuptake inhibition in transporter-transfected HEK-293 cells ([3H]-NE); conditions: for Triple reuptake inhibition (Ratio %) NET: compound 1 μM, [3H]-NE, relative to control without compound (100%), lower = more inhibition; for IC50: concentration at which Ratio % is 50%, 6 concentrations 1 nM to 1 μM, read-out: Triple reuptake inhibition (IC50, μM) NET
T2 construct: expressed in transfected cells; host or cells: HEK-293
Description: as §1, §2, §3
(§4) Meanwhile, the Patio % values were compared, and in the case of the compounds of Examples 6, 9, 10, 19, 20, 22, 24, 28, 30, 31, 32, 33, 35, 41, 42, 48, 49, 51, 55, 56, 59, 61, 63, 64, 65, 66, 74 and 76 with excellent reuptake inhibitory effects on dopamine, norepinephrine and serotonin, the concentration at which the Ratio % is 50% was calculated using a total of 6 concentrations (1 nM, 5 nM, 10 nM, 50 nM, 100 nM, and 1 μM) and expressed as IC50. In addition, in the case of the compound of Comparative Example 1, IC50 was obtained by the same method as the Example Compounds.

dopamine transporter = biological target: T3, dopamine transporter (Homo sapiens, UniProt Q01959); assay: Dopamine reuptake inhibition in transporter-transfected HEK-293 cells ([3H]-DA); conditions: for Triple reuptake inhibition (Ratio %) DAT: compound 1 μM, 20-30 nM [3H]-DA, relative to control without compound (100%), lower = more inhibition; for IC50: concentration at which Ratio % is 50%, 6 concentrations 1 nM to 1 μM, read-out: Triple reuptake inhibition (IC50, μM) DAT
T3 construct: expressed in transfected cells; host or cells: HEK-293
Description: as §1, §3, §4

T3 sequence (Q01959 whole entry): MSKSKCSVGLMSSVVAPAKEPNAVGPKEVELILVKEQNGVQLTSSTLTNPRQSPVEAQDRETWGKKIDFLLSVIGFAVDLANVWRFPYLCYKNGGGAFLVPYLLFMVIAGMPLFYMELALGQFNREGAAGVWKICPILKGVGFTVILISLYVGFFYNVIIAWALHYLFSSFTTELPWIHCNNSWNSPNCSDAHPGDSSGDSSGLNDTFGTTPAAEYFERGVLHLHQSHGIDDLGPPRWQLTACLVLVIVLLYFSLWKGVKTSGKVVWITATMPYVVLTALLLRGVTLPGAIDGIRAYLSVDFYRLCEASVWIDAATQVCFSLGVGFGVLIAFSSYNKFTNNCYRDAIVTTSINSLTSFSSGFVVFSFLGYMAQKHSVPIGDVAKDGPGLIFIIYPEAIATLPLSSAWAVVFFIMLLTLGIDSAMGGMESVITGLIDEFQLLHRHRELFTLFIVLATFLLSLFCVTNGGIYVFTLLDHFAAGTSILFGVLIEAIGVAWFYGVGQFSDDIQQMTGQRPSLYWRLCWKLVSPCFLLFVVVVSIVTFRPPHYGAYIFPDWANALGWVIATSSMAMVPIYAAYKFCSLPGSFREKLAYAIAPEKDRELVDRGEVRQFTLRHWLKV
T1 sequence (P31645 whole entry): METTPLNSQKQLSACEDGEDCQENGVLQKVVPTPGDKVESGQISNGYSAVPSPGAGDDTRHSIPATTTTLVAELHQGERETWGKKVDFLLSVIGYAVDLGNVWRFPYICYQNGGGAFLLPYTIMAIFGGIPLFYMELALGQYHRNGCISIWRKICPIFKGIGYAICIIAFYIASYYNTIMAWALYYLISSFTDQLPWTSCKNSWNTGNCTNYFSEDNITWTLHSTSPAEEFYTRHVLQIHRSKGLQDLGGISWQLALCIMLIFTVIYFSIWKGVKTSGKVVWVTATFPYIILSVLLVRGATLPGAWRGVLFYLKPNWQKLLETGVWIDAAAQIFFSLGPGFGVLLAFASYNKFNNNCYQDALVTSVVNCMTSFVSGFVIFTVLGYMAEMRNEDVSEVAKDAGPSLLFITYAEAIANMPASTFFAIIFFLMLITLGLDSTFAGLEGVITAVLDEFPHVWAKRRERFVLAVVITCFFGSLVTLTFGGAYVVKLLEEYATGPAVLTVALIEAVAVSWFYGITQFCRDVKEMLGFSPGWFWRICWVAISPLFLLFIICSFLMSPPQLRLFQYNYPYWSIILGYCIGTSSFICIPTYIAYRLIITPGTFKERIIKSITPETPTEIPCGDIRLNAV
T2 sequence (P23975 whole entry, species assumed): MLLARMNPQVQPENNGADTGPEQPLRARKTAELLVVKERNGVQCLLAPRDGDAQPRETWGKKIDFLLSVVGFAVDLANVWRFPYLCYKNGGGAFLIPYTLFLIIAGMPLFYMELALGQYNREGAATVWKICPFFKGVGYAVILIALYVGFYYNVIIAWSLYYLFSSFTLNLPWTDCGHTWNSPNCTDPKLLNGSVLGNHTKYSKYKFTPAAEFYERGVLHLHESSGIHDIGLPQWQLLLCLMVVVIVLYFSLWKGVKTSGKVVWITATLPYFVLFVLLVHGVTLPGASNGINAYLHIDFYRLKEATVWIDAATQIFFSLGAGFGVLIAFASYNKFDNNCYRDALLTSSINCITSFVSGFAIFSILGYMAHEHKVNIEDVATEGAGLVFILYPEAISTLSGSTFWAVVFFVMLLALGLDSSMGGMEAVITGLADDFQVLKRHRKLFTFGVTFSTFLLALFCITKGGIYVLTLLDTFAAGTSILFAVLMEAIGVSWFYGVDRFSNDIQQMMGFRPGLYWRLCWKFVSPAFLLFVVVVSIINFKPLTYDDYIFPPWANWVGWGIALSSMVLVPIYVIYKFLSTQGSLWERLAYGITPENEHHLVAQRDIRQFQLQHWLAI

Row | Compound | Triple reuptake inhibition (Ratio %) SERT (serotonin transporter) | Triple reuptake inhibition (Ratio %) NET [1] | Triple reuptake inhibition (Ratio %) DAT (dopamine transporter) | IC50 [1] | IC50 (dopamine transporter) | IC50 (serotonin transporter)
1 | O=C(NCCN1CCC(Cc2ccccc2)CC1)C1CC1 [Example 69, N-(2-(4-benzylpiperidin-1-yl)ethyl)cyclopropanecarboxamide] | 113.80% | 86.02% | 92.83% |  |  | 
2 | O=C(NCCn1ccc(-c2ccc(F)cn2)n1)c1ccc2cc(Br)ccc2c1 [Example 8, 6-bromo-N-(2-(3-(5-fluoropyridin-2-yl)-1H-pyrazol-1-yl)ethyl)-2-naphthamide] | 86.83% | 95.78% | 97.06% |  |  | 
3 | O=C(CCC(=O)N1CCC(Cc2ccccc2)CC1)Nc1cc2ccccc2[nH]1 [Example 77, 4-(4-benzylpiperidin-1-yl)-N-(1H-indol-2-yl)-4-oxobutanamide] | 98.61% | 91.05% | 111.32% |  |  | 
4 | O=C(NCCN1CCC(Cc2ccccc2)CC1)c1ccccn1 [Example 71, N-(2-(4-benzylpiperidin-1-yl)ethyl)picolinamide] | 67.98% | 105.84% | 117.41% |  |  | 
5 | O=C(NCCN1CCC(Cc2ccccc2)CC1)c1cc2cc(Br)ccc2[nH]1 [Example 30, N-(2-(4-benzylpiperidin-1-yl)ethyl)-5-bromo-1H-indol-2-carboxamide] | 75.29% | 94.09% | 49.44% | 7.91 µM | 0.984 µM | 
6 | O=C(NCCN1CCC(Cc2ccccc2)CC1)c1nc2ccccc2s1 [Example 55, N-(2-(4-benzylpiperidin-1-yl)ethyl)benzo[d]thiazol-2-carboxamide] | 53.01% | 57.47% | 39.32% | 2.48 µM | 2.64 µM | 3.01 µM
7 | O=C(NCCN1CCC(C(O)c2ccccc2)CC1)c1cc2ccccc2[nH]1 (stereo not shown) [Example 36, N-(2-(4-(hydroxy(phenyl)methyl)piperidin-1-yl)ethyl)-1H-indol-2-carboxamide] | 111.92% | 90.99% | 84.74% |  |  | 
8 | CCCCOc1ccc(C(=O)NCCN2CCC(c3c[nH]c4ccccc34)CC2)cc1 [Example 72, N-(2-(4-(1H-indol-3-yl)piperidin-1-yl)ethyl)-4-butoxybenzamide] | 17.44% | 97.62% | 58.16% |  |  | 
9 | O=C(NCCN1CCC(Cc2ccc(Cl)c(Cl)c2)CC1)c1ccc2cc(Br)ccc2c1 [Example 9, 6-bromo-N-(2-(4-(3,4-dichlorobenzyl)piperidin-1-yl)ethyl)-2-naphthamide] | 9.92% | 98.42% | 78.56% |  | 2.91 µM | 3.07 µM
10 | O=C(NCCN1CCC(Cc2ccc(Cl)c(Cl)c2)CC1)c1ccc(Cl)c(Cl)c1 [Example 17, 3,4-dichloro-N-(2-(4-(3,4-dichlorobenzyl)piperidin-1-yl)ethyl)benzamide] | 4.81% | 88.67% | 66.05% |  |  | 
